Data from patent publication US8952024B2, “Herbicidal pyrimidone derivatives” (E I du Pont de Nemours and Company, priority 2009, dated 2015).

Assays:
Type in all cases: in vivo
[1] = tested on: windgrass (Apera spica-venti); assay: Test B postemergence plant response; conditions: Postemergence, scale 0 (no effect) to 100 (complete control)
Method in brief: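 Visual ratings from 0 (no effect) to 100 (complete control), made against controls 13–15 days after treatment, kept in a greenhouse. Compounds were applied postemergence to potted plants at the 1- to 4-leaf stage (2–18 cm).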

rice (Oryza sativa) = assay: Test B flooded paddy test
Method in brief: (§1)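 2-leaf seedlings; pots flooded 3 cm over soil at treatment; cpd dosed into floodwater, depth kept constant. Greenhouse 13–15 d. Visual rating vs untreated controls, 0 = no effect, 100 = complete control.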

[2] = tested on: umbrella sedge (Cyperus difformis); assay: Test B flooded paddy test
Method in brief: as §1

[3] = tested on: ducksalad (Heteranthera limosa); assay: Test B flooded paddy test
Method in brief: as §1

[4] = tested on: barnyardgrass (Echinochloa crus-galli); assay: Test B flooded paddy test
Method in brief: as §1

[5] = tested on: velvetleaf (Abutilon theophrasti); assay: Test A pre-/postemergence plant response
Method in brief: (§2)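 Visual injury rating on a 0–100 scale (0 = no effect, 100 = complete control) was made versus untreated controls after about ten days in the greenhouse. Compounds, formulated in a non-phytotoxic solvent mix containing surfactant, were sprayed preemergence onto loam/sand soil and postemergence onto one- to two-leaf plants.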

corn (Zea mays) = assay: Test A pre-/postemergence plant response
Method in brief: as §2

[6] = tested on: large crabgrass (Digitaria sanguinalis); assay: Test A pre-/postemergence plant response
Method in brief: as §2

[7] = tested on: pigweed (Amaranthus retroflexus); assay: Test A pre-/postemergence plant response
Method in brief: as §2

[8] = tested on: morningglory (Ipomoea spp.); assay: Test A pre-/postemergence plant response
Method in brief: as §2

[9] = tested on: barnyardgrass (Echinochloa crus-galli); assay: Test A pre-/postemergence plant response
Method in brief: as §2

[10] = tested on: wheat (Triticum aestivum); assay: Test A pre-/postemergence plant response
Method in brief: as §2

[11] = tested on: giant foxtail (Setaria faberii); assay: Test A pre-/postemergence plant response
Method in brief: as §2

[12] = 250 g ai/ha, flooded paddy test, visual rating on 0 to 100 scale (0 no effect, 100 complete control) after 13 to 15 days
[13] = Flood (flooded paddy test), 62 g ai/ha, scale of 0 to 100 where 0 is no effect and 100 is complete control, 13 to 15 days
[14] = Postemergence, 125 g ai/ha, visual injury, 0 to 100 scale (0 no effect, 100 complete control), approx. ten days
[15] = Postemergence, 500 g ai/ha, 0 to 100 scale, 0 = no effect, 100 = complete control, approx. ten days
[16] = Preemergence, 125 g ai/ha, 0 to 100 scale, 0 = no effect, 100 = complete control
[17] = Preemergence, 500 g ai/ha, visual injury, 0 to 100 scale (0 no effect, 100 complete control), approx. ten days

Cc1cc(F)ccc1-n1c(-c2ccccc2)ncc(C(=O)C2=C(O)CCCC2=O)c1=O [Compound 48]
65: Plant response rating, Flood, Rice (rice (Oryza sativa); [12])
90: Plant response rating, Windgrass ([1]; 125 g ai/ha, visual rating after 13 to 15 days) | Crabgrass, Large plant response rating [6, 14] | Plant response rating, Crabgrass, Large [6, 16] | Plant response rating, Pigweed [7, 16] | Morningglory plant response rating [8, 14] | Plant response rating, Barnyardgrass [9, 15] | Foxtail, Giant plant response rating [11, 14] | Plant response rating, Foxtail, Giant [11, 17]
70: Plant response rating, Foxtail, Giant [11, 16]
85: Plant response rating, Flood, Ducksalad [3, 12]
80: Plant response rating, Windgrass ([1]; 62 g ai/ha, 13 to 15 days) | Plant response rating, Velvetleaf [5, 16] | Plant response rating, Morningglory [8, 17] | Barnyardgrass plant response rating [9, 14]
75: Plant response rating, Flood, Sedge, Umbrella [2, 12]
30: Plant response rating, Corn (corn (Zea mays); [15])
35: Plant response rating, Flood, Barnyardgrass [4, 12]
40: Plant response rating, Sedge, Umbrella [2, 13] | Plant response rating, Morningglory [8, 16]
100: Velvetleaf plant response rating [5, 14] | Plant response rating, Velvetleaf [5, 15] | Plant response rating, Velvetleaf [5, 17] | Plant response rating, Crabgrass, Large [6, 15] | Plant response rating, Crabgrass, Large [6, 17] | Pigweed plant response rating [7, 14] | Plant response rating, Pigweed [7, 15] | Plant response rating, Pigweed [7, 17] | Plant response rating, Morningglory [8, 15] | Plant response rating, Barnyardgrass [9, 17] | Plant response rating, Foxtail, Giant [11, 15]
20: Plant response rating, Barnyardgrass [9, 16] | Plant response rating, Wheat [10, 15]
0: Plant response rating, Rice (rice (Oryza sativa); [13]) | Plant response rating, Ducksalad [3, 13] | Plant response rating, Barnyardgrass [4, 13] | Corn plant response rating (corn (Zea mays); [14]) | Plant response rating, Corn (corn (Zea mays); [16]) | Plant response rating, Corn (corn (Zea mays); [17]) | Wheat plant response rating [10, 14] | Plant response rating, Wheat [10, 16] | Plant response rating, Wheat [10, 17]
